Tests used:
[1] = test system: 8 week old db/db diabetic mice; assay: Hyperinsulinemic-euglycemic clamp, glucose lowering in db/db diabetic mice; format: in vivo; settings: for glucose infusion rate compared to the vehicle control: db/db mice, po bid 13 days, qd day 14, clamp on day 14, insulin 10 mU/kg/min; for glucose uptake in white vastus muscle / augmenting muscle glucose uptake in the gastrocnemius muscle: 14C-2-deoxyglucose during clamp; for glucose uptake in white vastus muscle: non oxidative muscle group; for augmenting muscle glucose uptake in the gastrocnemius muscle: p<0.05
Method: Glucose lowering in 8 week old db/db diabetic mice: The hyperinsulinemic-euglycemic clamp protocol was conducted to measure insulin sensitivity in vivo. In this procedure, insulin was administered to raise the insulin concentration while glucose was infused to maintain euglycemia or a fixed, normal blood glucose level (about 180 mg/dL). […] The objective of this protocol was to investigate characterize the capacity of 17α-ethynylandrost-5-ene-3β,7β,17β-triol and androst-5-ene-3β,7β,16α,17β-tetrol to ameliorate systemic insulin resistance and improve whole body glucose disposal in the hyperinsulinemic-euglycemic clamp model. The degree of skeletal muscle and hepatic insulin sensitivity and tissue specific glucose uptake were also assessed. The animals were dosed daily by oral gavage for 14 days. On Day 10 of treatment catheters were implanted in the carotid artery and jugular vein. On the day of the clamp (day 14) the compound was administered at 7:30 am.
Body weight and glucose concentration were assessed on day 0, 7 and day 14 of treatment. On day 14 a euglycemic-hyperinsulinemic clamp was performed. Food was removed at 7:30 am and at 10:30 a primed continuous infusion of [3-^3H]-glucose (0.05 μCi/min) was administered. A baseline blood sample was taken at 12:50 (−10 min) and at 1:00 (0 min) a euglycemic-hyperinsulinemic clamp was initiated by administering 10 mU/kg/min of insulin. Glucose was infused at a variable rate to clamp the glucose concentration at about 180 mg/dl. A bolus of [^14C]-2deoxyglucose was given at the end of the study to assess tissue specific glucose uptake. Plasma ^14C 2-deoxyglucose was assessed at 122, 125, 130, 135, 145 min. The animals were then anesthetized with an intravenous infusion of sodium pentobarbital and selected tissues were removed, immediately frozen in liquid nitrogen and stored at −70° C. until analysis.
Analysis was conducted as follows. Plasma samples were deproteinized with Ba(OH)2 (0.3 N) and ZnSO4 (0.3 N), dried and radioactivity was assessed on scintillation counter (Packard TRICARB 2900 TR, Meriden, Conn.). Frozen tissue samples were homogenized in 0.5% perchloric acid, centrifuged and neutralized. One supernatant was directly counted to determine radioactivity from both [14C] DG and DGP. A second aliquot was treated with Ba(OH)2 and ZnSO4 to remove ^14C DGP and any tracer incorporated into glycogen and then counted to determine radioactivity from free [^14C]DG(2). [^14C]DGP was calculated as the difference between the two aliquots. The accumulation of [^14C]DGP was normalized to tissue weight and tracer bolus. Rg, an index of tissue specific glucose uptake was calculated as previously described (E. W. Kraegen et al., Am. J. Physiol., 248: E353-E362 (1985)). Whole body glucose turnover was calculated as the ratio of the ^3H glucose infusion rate (dpm/kg/min) and arterial plasma glucose specific activity (dpm/mg). Endogenous glucose production was calculated as the difference between the whole body glucose turnover and the exogenous glucose infusion rate (R. N. Bergman et al., Endocr. Rev., 6:45-86, (1985)).

[2] = test system: male Wistar rats, DNBS challenge; assay: DNBS-induced distal colitis, animal model for inflammatory bowel disease; format: in vivo; settings: sc once a day for 6 days, 0.2 or 2.0 mg/animal/day, 25-30% decrease considered significant
Method: The capacity of androst-5-ene-3β,7β,16α,17β-tetrol (3β-tetrol) to limit or inhibit inflammation or symptoms of inflammation is shown using an animal model for inflammatory bowel disease using the following protocol.
Groups of 3 male Wistar rats (180±20 grams) fasted for 24 hours before 2,4-dinitrobenzene sulfonic acid (DNBS) or saline challenge are used. Distal colitis is induced by intra-colonic instillation of 0.5 mL of an ethanolic solution of DNBS (30 mg in 0.5 mL of a 30% ethanol in saline solution) after which 2 mL of air was injected through the cannula to ensure that the solution remained in the colon. The volume used was 0.1 mL per injection of 2 and 20 mg/mL of compound such as androst-5-ene-3β,7β,17β-triol or 3β-tetrol in a liquid formulation, which was administered by subcutaneous injection once a day for 6 days (0.2 mg/animal/day or 2.0 mg/animal/day). The formulation contains […] of compound. Concentrations of 2 mg/mL and 20 mg/mL are obtained by […] with vehicle that lacked compound.
The first dose is given 30 minutes after DNBS challenge. […] The presence of diarrhea is recorded daily by examining the anal area. […] Before removal of the colon, signs of adhesion between the colon and other organs are recorded. […]

MG-63 cells = assay: Reversal of adverse effects of dexamethasone in MG-63 osteoblasts (incl. osteoprotegerin synthesis); format: cell-based, human
From the text: (§1) The capacity of 5-androstene-3β,7β,17β-triol, androst-5-ene-3β,7β,16α,17β-tetrol (3β-tetrol) and other compounds to reverse adverse effects of glucocorticoids in bone growth was shown in the human MG-63 osteosarcoma cell line. MG-63 cells are osteoblasts, which are cells that mediate bone growth. This cell line has been used extensively to study bone biology and to characterize the biological activity of compounds for treatment of bone loss conditions (e.g., B. D. Boyan et al., J. Biol. Chem., 264(20):11879-11886 (1989); L. C. Hofbauer et al., Endocrinology, 140(10):4382-4389 (1999)). Adverse toxicities associated with elevated glucocorticoid levels include a […] in the production of IL-6 and IL-8 by osteoblasts, including the MG-63 cell line, and an increase in the expression of the 11β-hydroxysteroid dehydrogenase type 1 enzyme (11β-HSD). Increased 11β-hydroxysteroid dehydrogenase type 1 enzyme results in increased levels of endogenous glucocorticoid activity by converting endogenous cortisone to the active cortisol, which inhibits bone growth. The 11β-HSD enzyme is expressed in liver, adipose tissue, brain and bone tissues. Cortisol generated by 11β-HSD-1 contributes to osteoporosis, insulin resistance, type 2 diabetes, dyslipidemia, obesity, central nervous system disorders such as stroke, neuron death, depression and Parkinson Disease. […]

androgen receptor = biological target: T1, androgen receptor (Homo sapiens, UniProt P10275); assay: Interaction with androgen receptor; format: binding
T1 sequence (P10275 1-920): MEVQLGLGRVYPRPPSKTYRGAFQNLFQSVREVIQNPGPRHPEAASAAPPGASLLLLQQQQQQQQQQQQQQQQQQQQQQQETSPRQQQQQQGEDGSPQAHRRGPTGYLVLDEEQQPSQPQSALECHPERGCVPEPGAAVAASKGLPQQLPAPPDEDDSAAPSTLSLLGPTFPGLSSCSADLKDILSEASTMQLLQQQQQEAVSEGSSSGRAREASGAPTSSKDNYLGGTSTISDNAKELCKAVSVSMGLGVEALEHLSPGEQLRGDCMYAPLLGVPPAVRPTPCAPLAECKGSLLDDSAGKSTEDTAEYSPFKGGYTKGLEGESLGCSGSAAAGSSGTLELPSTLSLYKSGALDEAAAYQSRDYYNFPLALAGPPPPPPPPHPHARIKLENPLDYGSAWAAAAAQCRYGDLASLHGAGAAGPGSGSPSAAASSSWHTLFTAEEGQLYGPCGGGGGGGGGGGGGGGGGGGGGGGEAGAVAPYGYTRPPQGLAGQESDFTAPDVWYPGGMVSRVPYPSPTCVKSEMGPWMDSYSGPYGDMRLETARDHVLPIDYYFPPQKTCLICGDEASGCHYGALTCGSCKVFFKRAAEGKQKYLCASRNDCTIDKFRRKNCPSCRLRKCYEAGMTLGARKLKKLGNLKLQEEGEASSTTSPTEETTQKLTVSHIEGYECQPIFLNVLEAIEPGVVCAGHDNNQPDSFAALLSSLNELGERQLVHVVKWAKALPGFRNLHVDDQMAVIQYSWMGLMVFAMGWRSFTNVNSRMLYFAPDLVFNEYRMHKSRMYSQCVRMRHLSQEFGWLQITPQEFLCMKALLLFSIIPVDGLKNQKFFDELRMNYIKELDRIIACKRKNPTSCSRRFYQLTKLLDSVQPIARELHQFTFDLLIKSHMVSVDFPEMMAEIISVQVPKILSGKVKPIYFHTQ

estrogen receptor-α = estrogen receptor-α (Homo sapiens, UniProt P03372); assay: Interaction with estrogen receptor-α; format: binding
estrogen receptor-β = estrogen receptor-β (Homo sapiens, UniProt Q92731); assay: Interaction with estrogen receptor-β; format: binding
IL-6 from MG-63 cells = assay: Inhibition of IL-6 from MG-63 cells; format: cell-based; settings: Homo sapiens, pilot studies
From the text: as §1

osteoprotegerin = assay: Osteoprotegerin levels in dexamethasone-treated mice; format: in vivo; settings: mice treated with vehicle and dexamethasone at 10 μg/day, daily for 23 days (positive control group)
Method: Osteoprotegerin levels in mice that are treated with vehicle and dexamethasone at 10 μg/day (positive control group) typically show 3.3 pMol/L osteoprotegerin, […]

Sequence of estrogen receptor-α (P03372 whole entry): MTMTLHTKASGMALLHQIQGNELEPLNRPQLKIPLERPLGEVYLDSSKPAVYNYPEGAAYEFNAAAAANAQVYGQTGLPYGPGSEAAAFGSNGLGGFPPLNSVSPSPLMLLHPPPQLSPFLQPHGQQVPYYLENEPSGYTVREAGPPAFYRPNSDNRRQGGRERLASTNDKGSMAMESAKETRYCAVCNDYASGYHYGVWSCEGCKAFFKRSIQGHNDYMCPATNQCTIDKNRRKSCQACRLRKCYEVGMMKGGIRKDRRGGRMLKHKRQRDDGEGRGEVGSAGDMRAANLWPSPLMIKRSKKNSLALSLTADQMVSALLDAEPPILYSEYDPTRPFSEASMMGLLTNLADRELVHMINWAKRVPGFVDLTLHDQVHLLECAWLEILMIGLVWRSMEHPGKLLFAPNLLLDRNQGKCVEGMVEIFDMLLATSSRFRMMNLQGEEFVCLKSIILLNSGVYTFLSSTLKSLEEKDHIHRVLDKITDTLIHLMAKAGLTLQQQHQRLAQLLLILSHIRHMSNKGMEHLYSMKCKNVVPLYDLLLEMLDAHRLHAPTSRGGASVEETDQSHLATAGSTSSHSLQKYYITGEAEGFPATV
Sequence of estrogen receptor-β (Q92731 whole entry, species assumed): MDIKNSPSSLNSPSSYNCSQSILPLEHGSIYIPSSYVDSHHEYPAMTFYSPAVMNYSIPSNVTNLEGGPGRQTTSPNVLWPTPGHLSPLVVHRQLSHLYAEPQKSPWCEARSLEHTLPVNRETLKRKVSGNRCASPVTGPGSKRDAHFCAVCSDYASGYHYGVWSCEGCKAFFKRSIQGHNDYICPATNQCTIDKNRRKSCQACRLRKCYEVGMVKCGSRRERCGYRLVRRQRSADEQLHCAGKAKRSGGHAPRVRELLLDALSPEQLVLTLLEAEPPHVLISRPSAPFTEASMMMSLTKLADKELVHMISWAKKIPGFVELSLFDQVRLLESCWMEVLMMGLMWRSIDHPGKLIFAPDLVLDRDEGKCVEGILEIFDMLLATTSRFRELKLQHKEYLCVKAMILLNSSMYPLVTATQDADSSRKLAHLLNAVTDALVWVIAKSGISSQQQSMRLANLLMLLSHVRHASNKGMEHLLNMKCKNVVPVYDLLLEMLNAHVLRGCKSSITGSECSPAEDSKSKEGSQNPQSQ

For C#C[C@]1(O)CC[C@H]2[C@@H]3[C@@H](O)C=C4C[C@@H](O)CC[C@]4(C)[C@H]3CC[C@@]21C [17α-ethynylandrost-5-ene-3β,7β,17β-triol, reference compound], the “glucose infusion rate compared to the vehicle control” value [1] was “increased”.
With C[C@]12CC[C@H]3[C@@H]([C@@H](O)C=C4C[C@@H](O)CC[C@@]43C)[C@@H]1CC[C@@H]2O [androst-5-ene-3β,7β,17β-triol, reference compound] the “decrease in net colon-to-body weight ratio” value [2] was 15-20%.
With C[C@]12CC[C@H]3[C@@H]([C@@H](O)C=C4C[C@@H](O)CC[C@@]43C)[C@@H]1C[C@@H](O)[C@@H]2O [Form 3β-tetrol, androst-5-ene-3β,7β,16α,17β-tetrol] the “glucose uptake in white vastus muscle” value [1] was “differences were not detected except between androst-5-ene-3β,7β,16α,17β-tetrol and rosiglitazone”, the “augmenting muscle glucose uptake in the gastrocnemius muscle” value [1] was “more effective” and the “glucose infusion rate compared to the vehicle control” value [1] was “increased”. For the same compound, the “decrease in net colon-to-body weight ratio” value [2] was 25-35%, the “concentration giving normal osteoprotegerin levels” value (MG-63 cells; MG-63 cells, 30 nM dexamethasone) was 0.1 µM and the “reversal of the decrease in osteoprotegerin synthesis by MG-63 cells” value (MG-63 cells; in the presence of 30 nM dexamethasone) was “completely or partially reversed”. For the same compound, the “interaction with androgen receptor” value (androgen receptor) was “does not interact”, the “interaction with estrogen receptor-α” value (estrogen receptor-α) was “does not interact” and the “interaction with estrogen receptor-β” value (estrogen receptor-β) was “does not interact”.
C[C@@H]1C[C@H]2[C@@H]3CCC4=CC(=O)C=C[C@]4(C)[C@@]3(F)[C@@H](O)C[C@]2(C)[C@@]1(O)C(=O)CO [dexamethasone] showed an IC50 (IL-6 from MG-63 cells) of 10 nM and an osteoprotegerin level (osteoprotegerin) of 3.3 pmol/L.
With CN(CCOc1ccc(CC2SC(=O)NC2=O)cc1)c1ccccn1.O=C(O)/C=C\C(=O)O (stereo not drawn) [rosiglitazone, rosiglitazone maleate, reference compound] the “glucose uptake in white vastus muscle” value [1] was “differences were not detected except between androst-5-ene-3β,7β,16α,17β-tetrol and rosiglitazone” and the “augmenting muscle glucose uptake in the gastrocnemius muscle” value [1] was “more effective”.

— patent US20120220560A1, “STEROID TETROL SOLID STATE FORMS” (priority 2010, published 2012)
